Five compounds from ChEMBL document CHEMBL5576101, “Discovery of 1,2,3-triazole-based pleuromutilin derivatives as potent gram-positive antibacterial agents” (2024) can be followed below.

SMILES strings stand for the structures. ≈ marks a conversion by molar mass, not a printed value. Where only a bound is given, the exact number is not on record here.

The subject of the first experiment is Enterococcus faecalis. Kind of experiment: Antibacterial activity against Enterococcus faecalis by broth dilution method. The class given is functional. In general terms: Dilution methods test growth across graded concentrations, often in twofold steps.
With `C=C[C@]1(C)C[C@@H](OC(=O)CSC(C)(C)CNC(=O)Cn2cc(CNc3ccc(Cl)cc3)nn2)[C@]2(C)[C@H](C)CC[C@]3(CCC(=O)[C@H]32)[C@@H](C)[C@@H]1O`, the MIC (as a rule, the lowest concentration found to suppress growth) is 64 µg/mL (≈ 89.6 µM).

Turning to `C=C[C@]1(C)C[C@@H](OC(=O)CSC(C)(C)CNC(=O)Cn2cc(CNc3ccc(Br)cc3)nn2)[C@]2(C)[C@H](C)CC[C@]3(CCC(=O)[C@H]32)[C@@H](C)[C@@H]1O`, the MIC was > 64 µg/mL.

`C=C[C@]1(C)C[C@@H](OC(=O)CSC(C)(C)CNC(=O)Cn2cc(Cc3ccccc3)nn2)[C@]2(C)[C@H](C)CC[C@]3(CCC(=O)[C@H]32)[C@@H](C)[C@@H]1O` registered an MIC of 64 µg/mL (≈ 96.3 µM).

Compound `C=C[C@]1(C)C[C@@H](OC(=O)CSC(C)(C)CNC(=O)Cn2cc(COc3ccc(C)cc3)nn2)[C@]2(C)[C@H](C)CC[C@]3(CCC(=O)[C@H]32)[C@@H](C)[C@@H]1O` yielded an MIC of 16 µg/mL (≈ 23 µM).

As for `C=C[C@]1(C)C[C@@H](OC(=O)CSC(C)(C)CNC(=O)Cn2cc(Cc3ccc(OC)cc3)nn2)[C@]2(C)[C@H](C)CC[C@]3(CCC(=O)[C@H]32)[C@@H](C)[C@@H]1O`, the MIC was determined as 1 µg/mL (≈ 1.44 µM).

The test system of another experiment is Staphylococcus aureus. Kind of experiment: Antibacterial activity against Staphylococcus aureus by broth dilution method. The class given is functional.
Take `C=C[C@]1(C)C[C@@H](OC(=O)CSC(C)(C)CNC(=O)Cn2cc(CNc3ccc(Cl)cc3)nn2)[C@]2(C)[C@H](C)CC[C@]3(CCC(=O)[C@H]32)[C@@H](C)[C@@H]1O`: the MIC amounted to 2 µg/mL (≈ 2.8 µM).

Regarding `C=C[C@]1(C)C[C@@H](OC(=O)CSC(C)(C)CNC(=O)Cn2cc(CNc3ccc(Br)cc3)nn2)[C@]2(C)[C@H](C)CC[C@]3(CCC(=O)[C@H]32)[C@@H](C)[C@@H]1O`, the MIC is > 64 µg/mL.

In the case of `C=C[C@]1(C)C[C@@H](OC(=O)CSC(C)(C)CNC(=O)Cn2cc(Cc3ccccc3)nn2)[C@]2(C)[C@H](C)CC[C@]3(CCC(=O)[C@H]32)[C@@H](C)[C@@H]1O`, the lowest concentration to inhibit growth (MIC) was 16 µg/mL (≈ 24.1 µM).

`C=C[C@]1(C)C[C@@H](OC(=O)CSC(C)(C)CNC(=O)Cn2cc(COc3ccc(C)cc3)nn2)[C@]2(C)[C@H](C)CC[C@]3(CCC(=O)[C@H]32)[C@@H](C)[C@@H]1O`: the MIC is > 64 µg/mL.

`C=C[C@]1(C)C[C@@H](OC(=O)CSC(C)(C)CNC(=O)Cn2cc(Cc3ccc(OC)cc3)nn2)[C@]2(C)[C@H](C)CC[C@]3(CCC(=O)[C@H]32)[C@@H](C)[C@@H]1O` displayed an MIC of 0.5 µg/mL (≈ 0.719 µM).

The subject of a further experiment is Staphylococcus aureus. In words: Antibacterial activity against methicillin-resistant Staphylococcus aureus by broth dilution method. The class given is functional.
As to `C=C[C@]1(C)C[C@@H](OC(=O)CSC(C)(C)CNC(=O)Cn2cc(CNc3ccc(Cl)cc3)nn2)[C@]2(C)[C@H](C)CC[C@]3(CCC(=O)[C@H]32)[C@@H](C)[C@@H]1O`, the lowest concentration to inhibit growth (MIC) was 8 µg/mL (≈ 11.2 µM).

Compound `C=C[C@]1(C)C[C@@H](OC(=O)CSC(C)(C)CNC(=O)Cn2cc(CNc3ccc(Br)cc3)nn2)[C@]2(C)[C@H](C)CC[C@]3(CCC(=O)[C@H]32)[C@@H](C)[C@@H]1O` returned an MIC of 64 µg/mL (≈ 84.3 µM).

`C=C[C@]1(C)C[C@@H](OC(=O)CSC(C)(C)CNC(=O)Cn2cc(Cc3ccccc3)nn2)[C@]2(C)[C@H](C)CC[C@]3(CCC(=O)[C@H]32)[C@@H](C)[C@@H]1O` came in with an MIC of 4 µg/mL (≈ 6.02 µM).

Compound `C=C[C@]1(C)C[C@@H](OC(=O)CSC(C)(C)CNC(=O)Cn2cc(COc3ccc(C)cc3)nn2)[C@]2(C)[C@H](C)CC[C@]3(CCC(=O)[C@H]32)[C@@H](C)[C@@H]1O` yielded an MIC of 0.062 µg/mL (≈ 0.0892 µM).

`C=C[C@]1(C)C[C@@H](OC(=O)CSC(C)(C)CNC(=O)Cn2cc(Cc3ccc(OC)cc3)nn2)[C@]2(C)[C@H](C)CC[C@]3(CCC(=O)[C@H]32)[C@@H](C)[C@@H]1O`: the MIC was > 64 µg/mL.

For another experiment, the system named is Escherichia coli. Kind of experiment: Antibacterial activity against Escherichia coli by broth dilution method. The class given is functional.
Consider `C=C[C@]1(C)C[C@@H](OC(=O)CSC(C)(C)CNC(=O)Cn2cc(CNc3ccc(Cl)cc3)nn2)[C@]2(C)[C@H](C)CC[C@]3(CCC(=O)[C@H]32)[C@@H](C)[C@@H]1O`, for which the MIC is > 64 µg/mL.

Take `C=C[C@]1(C)C[C@@H](OC(=O)CSC(C)(C)CNC(=O)Cn2cc(CNc3ccc(Br)cc3)nn2)[C@]2(C)[C@H](C)CC[C@]3(CCC(=O)[C@H]32)[C@@H](C)[C@@H]1O`: the MIC was > 64 µg/mL.

As to `C=C[C@]1(C)C[C@@H](OC(=O)CSC(C)(C)CNC(=O)Cn2cc(Cc3ccccc3)nn2)[C@]2(C)[C@H](C)CC[C@]3(CCC(=O)[C@H]32)[C@@H](C)[C@@H]1O`, the minimum inhibitory concentration (MIC) is > 64 µg/mL.

`C=C[C@]1(C)C[C@@H](OC(=O)CSC(C)(C)CNC(=O)Cn2cc(COc3ccc(C)cc3)nn2)[C@]2(C)[C@H](C)CC[C@]3(CCC(=O)[C@H]32)[C@@H](C)[C@@H]1O`: the MIC is > 64 µg/mL.

Take `C=C[C@]1(C)C[C@@H](OC(=O)CSC(C)(C)CNC(=O)Cn2cc(Cc3ccc(OC)cc3)nn2)[C@]2(C)[C@H](C)CC[C@]3(CCC(=O)[C@H]32)[C@@H](C)[C@@H]1O`: the MIC is > 64 µg/mL.

Another experiment has as its system Staphylococcus epidermidis. In words: Antibacterial activity against Staphylococcus epidermidis by broth dilution method. In kind it is functional.
In turn, `C=C[C@]1(C)C[C@@H](OC(=O)CSC(C)(C)CNC(=O)Cn2cc(CNc3ccc(Cl)cc3)nn2)[C@]2(C)[C@H](C)CC[C@]3(CCC(=O)[C@H]32)[C@@H](C)[C@@H]1O` had an MIC of 8 µg/mL (≈ 11.2 µM).

`C=C[C@]1(C)C[C@@H](OC(=O)CSC(C)(C)CNC(=O)Cn2cc(CNc3ccc(Br)cc3)nn2)[C@]2(C)[C@H](C)CC[C@]3(CCC(=O)[C@H]32)[C@@H](C)[C@@H]1O` showed an MIC of 16 µg/mL (≈ 21.1 µM).

Compound `C=C[C@]1(C)C[C@@H](OC(=O)CSC(C)(C)CNC(=O)Cn2cc(Cc3ccccc3)nn2)[C@]2(C)[C@H](C)CC[C@]3(CCC(=O)[C@H]32)[C@@H](C)[C@@H]1O` registered an MIC of 4 µg/mL (≈ 6.02 µM).

Turning to `C=C[C@]1(C)C[C@@H](OC(=O)CSC(C)(C)CNC(=O)Cn2cc(COc3ccc(C)cc3)nn2)[C@]2(C)[C@H](C)CC[C@]3(CCC(=O)[C@H]32)[C@@H](C)[C@@H]1O`, the MIC worked out at 0.062 µg/mL (≈ 0.0892 µM).

`C=C[C@]1(C)C[C@@H](OC(=O)CSC(C)(C)CNC(=O)Cn2cc(Cc3ccc(OC)cc3)nn2)[C@]2(C)[C@H](C)CC[C@]3(CCC(=O)[C@H]32)[C@@H](C)[C@@H]1O` had an MIC of 0.5 µg/mL (≈ 0.719 µM).
